Test results from article PMC10878397, “Development of Potent Dual BET/HDAC Inhibitors via Pharmacophore Merging and Structure-Guided Optimization” (ACS Chemical Biology, 2024).
pEC50: −log10 of the molar value. Like-named read-outs stand apart in the source and are kept apart here.

Tests used:
[1] = tested on: MYC mRNA in NMC HCC2429 cells; assay: Quantitative RT-PCR of oncogenic drivers; assay type: cell-based; details: HCC2429, 6 h, 1 μΜ compound
Procedure: (§1) Total RNA was extracted from cell culture using the Maxwell RSC simply RNA Cells Kit (Promega) according to the manufacturer’s protocol. cDNA was synthesized using PrimeScript Reverse Transcriptase (TakaRa) and amplified using homemade PCR master mix. The amplicon was detected by EvaGreen Dye using a LightCycler 480 instrument (Roche). PCR conditions were 5 min at 95 °C, followed by 45 cycles of 95 °C for 10 s, 59 °C for 10 s, and 72 °C for 20 s. The relative gene expression levels were normalized to GUSB and calculated using the 2^–ΔΔC^t method.

[2] = tested on: TP63 mRNA in NMC HCC2429 cells; assay: Quantitative RT-PCR of oncogenic drivers; assay type: cell-based; details: HCC2429, 6 h, 1 μΜ compound
Procedure: as §1

BRD4 bromodomains = BRD4 bromodomains (Homo sapiens, UniProt O60885); assay: NanoBRET target engagement assay, both bromodomains; assay type: cell-based
Procedure: The assay was performed as described previously.[17],[59] In brief, BRD4 bromodomains and full-length HDACs were obtained as plasmids cloned in-frame with a terminal NanoLuc fusion (Promega). Plasmids were transfected into HEK293T cells using FuGENE HD (Promega, E2312), and proteins were allowed to express for 20 h. Serially diluted inhibitor and the corresponding NanoBRET Tracer (Promega) at a concentration determined previously as the tracer KD, app were pipetted into white 384-well plates (Greiner #781207) for BRD assays or white 96-well plates (Corning #3600) for HDAC using an Echo acoustic dispenser (Labcyte). The corresponding protein-transfected cells were added and reseeded at a density of 2 × 10^5 cells/mL after trypsinization and resuspended in Opti-MEM without phenol red (Life Technologies). The system was allowed to equilibrate for 2 h at 37 °C/5% CO2 prior to BRET measurements. To measure BRET, NanoBRET NanoGlo substrate + Extracellular NanoLuc Inhibitor (Promega, N2540) was added as per the manufacturer’s protocol, and filtered luminescence was measured on a PHERAstar plate reader (BMG Labtech) equipped with a luminescence filter pair (450 nm BP filter (donor) and 610 nm LP filter (acceptor)). For lysed-mode NanoBRET experiments, digitonin (Promega, #G9441) was added as per the manufacturer’s instructions to a final concentration of […].

BRD9 = target: T1, BRD9 (Homo sapiens, UniProt Q9H8M2); assay: DSF bromodomain selectivity panel; assay type: binding; details: 10 μM compound
T1 construct: purchased in-house (SGC Frankfurt recombinant bromodomain DSF panel)
Procedure: (§2) The effects of inhibitor binding on the apparent melting temperature of recombinant bromodomains were determined by DSF in a 96-well plate (Starlab) at a protein concentration of 2 μM with 10 μΜ compound in buffer containing 25 mM HEPES, pH 7.5, 150 mM NaCl, and 0.5 mM TCEP. […] Protein unfolding profiles were recorded using an MX3005P real-time qPCR instrument (Agilent; excitation/emission filters = 492/610 nm) while increasing the temperature from 25 to 95 °C at a heating rate of 3 °C/min. Tm values were calculated after fitting the fluorescence curves to the Boltzmann equation. Differences in melting temperature upon compound binding are given as ΔTm = Tm (protein with inhibitor) – Tm (protein with DMSO control). Measurements were performed in triplicates.

BAZ2B = target: T2, BAZ2B (Homo sapiens, UniProt Q9UIF8); assay: DSF bromodomain selectivity panel; assay type: binding; details: 10 μM compound
T2 construct: purchased in-house (SGC Frankfurt recombinant bromodomain DSF panel)
Procedure: as §2

TAF1 (2) = target: T3, TAF1 (2) (Homo sapiens, UniProt P21675); assay: DSF bromodomain selectivity panel; assay type: binding; details: 10 μM compound
T3 construct: TAF1 (2); purchased in-house (SGC Frankfurt recombinant bromodomain DSF panel)
Procedure: as §2

BRPF3 = target: T4, BRPF3 (Homo sapiens, UniProt Q9ULD4); assay: DSF bromodomain selectivity panel; assay type: binding; details: 10 μM compound
T4 construct: purchased in-house (SGC Frankfurt recombinant bromodomain DSF panel)
Procedure: as §2

WDR9A(1) = target: T5, WDR9A(1) (Homo sapiens, UniProt Q9NSI6); assay: DSF bromodomain selectivity panel; assay type: binding; details: 10 μM compound
T5 construct: WDR9A(1); purchased in-house (SGC Frankfurt recombinant bromodomain DSF panel)
Procedure: as §2

ATAD2A = target: T6, ATAD2A (Homo sapiens, UniProt Q6PL18); assay: DSF bromodomain selectivity panel; assay type: binding; details: 10 μM compound
T6 construct: purchased in-house (SGC Frankfurt recombinant bromodomain DSF panel)
Procedure: as §2

BRPF1B = target: T7, BRPF1B (Homo sapiens, UniProt P55201); assay: DSF bromodomain selectivity panel; assay type: binding; details: 10 μM compound
T7 construct: purchased in-house (SGC Frankfurt recombinant bromodomain DSF panel)
Procedure: as §2

BRD3 (1) = target: T8, BRD3 (1) (Homo sapiens, UniProt Q15059); assay: DSF bromodomain selectivity panel; assay type: binding; details: 10 μM compound
T8 construct: BRD3 (1); purchased in-house (SGC Frankfurt recombinant bromodomain DSF panel)
Procedure: as §2

PB1A(3) = target: T9, PB1A(3) (Homo sapiens, UniProt Q86U86); assay: DSF bromodomain selectivity panel; assay type: binding; details: 10 μM compound
T9 construct: PB1A(3); purchased in-house (SGC Frankfurt recombinant bromodomain DSF panel)
Procedure: as §2

EP300A = target: T10, EP300A (Homo sapiens, UniProt Q09472); assay: DSF bromodomain selectivity panel; assay type: binding; details: 10 μM compound
T10 construct: purchased in-house (SGC Frankfurt recombinant bromodomain DSF panel)
Procedure: as §2

PB1A(6) = target: T11, PB1A(6) (Homo sapiens, UniProt Q86U86); assay: DSF bromodomain selectivity panel; assay type: binding; details: 10 μM compound
T11 construct: PB1A(6); purchased in-house (SGC Frankfurt recombinant bromodomain DSF panel)
Procedure: as §2

T4 sequence (Q9ULD4 whole entry): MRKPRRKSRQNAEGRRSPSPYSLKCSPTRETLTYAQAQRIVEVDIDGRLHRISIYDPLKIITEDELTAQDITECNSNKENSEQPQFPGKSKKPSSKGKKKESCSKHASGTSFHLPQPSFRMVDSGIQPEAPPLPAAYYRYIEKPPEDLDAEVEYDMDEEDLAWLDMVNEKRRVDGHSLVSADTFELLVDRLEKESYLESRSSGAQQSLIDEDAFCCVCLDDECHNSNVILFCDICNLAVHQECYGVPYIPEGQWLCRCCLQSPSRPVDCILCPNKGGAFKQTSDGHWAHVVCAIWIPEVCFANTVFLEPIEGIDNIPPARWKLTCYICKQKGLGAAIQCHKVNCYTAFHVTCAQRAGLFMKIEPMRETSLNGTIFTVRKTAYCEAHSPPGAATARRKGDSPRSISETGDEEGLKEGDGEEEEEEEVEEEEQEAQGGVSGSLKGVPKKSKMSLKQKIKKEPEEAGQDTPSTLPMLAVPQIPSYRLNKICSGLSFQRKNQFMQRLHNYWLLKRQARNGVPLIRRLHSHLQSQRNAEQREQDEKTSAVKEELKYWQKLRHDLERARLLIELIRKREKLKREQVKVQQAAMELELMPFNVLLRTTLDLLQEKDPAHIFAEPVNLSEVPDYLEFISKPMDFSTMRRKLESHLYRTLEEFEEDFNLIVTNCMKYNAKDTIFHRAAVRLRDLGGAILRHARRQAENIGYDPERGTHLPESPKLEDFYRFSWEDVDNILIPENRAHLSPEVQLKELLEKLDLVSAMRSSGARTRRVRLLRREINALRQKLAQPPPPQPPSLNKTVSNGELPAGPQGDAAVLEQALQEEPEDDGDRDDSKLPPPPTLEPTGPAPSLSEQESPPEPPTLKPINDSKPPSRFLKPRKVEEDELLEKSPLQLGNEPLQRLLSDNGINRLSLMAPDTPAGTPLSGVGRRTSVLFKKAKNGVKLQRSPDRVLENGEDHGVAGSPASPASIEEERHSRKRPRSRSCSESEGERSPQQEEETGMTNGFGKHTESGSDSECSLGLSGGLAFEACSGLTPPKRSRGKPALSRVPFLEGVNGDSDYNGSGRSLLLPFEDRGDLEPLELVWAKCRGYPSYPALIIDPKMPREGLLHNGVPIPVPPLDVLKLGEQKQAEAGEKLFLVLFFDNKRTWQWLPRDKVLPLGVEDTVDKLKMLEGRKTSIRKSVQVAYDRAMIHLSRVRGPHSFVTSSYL
T11 sequence (Q86U86 773-914 limits assumed): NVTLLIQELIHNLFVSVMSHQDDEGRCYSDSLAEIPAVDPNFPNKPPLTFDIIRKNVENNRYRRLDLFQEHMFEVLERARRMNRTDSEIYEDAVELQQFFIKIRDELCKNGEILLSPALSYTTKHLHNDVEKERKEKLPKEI
T8 sequence (Q15059 24-144 limits assumed): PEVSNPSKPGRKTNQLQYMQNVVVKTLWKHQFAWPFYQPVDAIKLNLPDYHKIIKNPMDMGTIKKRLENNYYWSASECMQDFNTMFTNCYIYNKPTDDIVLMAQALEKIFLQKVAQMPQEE
T10 sequence (Q09472 whole entry): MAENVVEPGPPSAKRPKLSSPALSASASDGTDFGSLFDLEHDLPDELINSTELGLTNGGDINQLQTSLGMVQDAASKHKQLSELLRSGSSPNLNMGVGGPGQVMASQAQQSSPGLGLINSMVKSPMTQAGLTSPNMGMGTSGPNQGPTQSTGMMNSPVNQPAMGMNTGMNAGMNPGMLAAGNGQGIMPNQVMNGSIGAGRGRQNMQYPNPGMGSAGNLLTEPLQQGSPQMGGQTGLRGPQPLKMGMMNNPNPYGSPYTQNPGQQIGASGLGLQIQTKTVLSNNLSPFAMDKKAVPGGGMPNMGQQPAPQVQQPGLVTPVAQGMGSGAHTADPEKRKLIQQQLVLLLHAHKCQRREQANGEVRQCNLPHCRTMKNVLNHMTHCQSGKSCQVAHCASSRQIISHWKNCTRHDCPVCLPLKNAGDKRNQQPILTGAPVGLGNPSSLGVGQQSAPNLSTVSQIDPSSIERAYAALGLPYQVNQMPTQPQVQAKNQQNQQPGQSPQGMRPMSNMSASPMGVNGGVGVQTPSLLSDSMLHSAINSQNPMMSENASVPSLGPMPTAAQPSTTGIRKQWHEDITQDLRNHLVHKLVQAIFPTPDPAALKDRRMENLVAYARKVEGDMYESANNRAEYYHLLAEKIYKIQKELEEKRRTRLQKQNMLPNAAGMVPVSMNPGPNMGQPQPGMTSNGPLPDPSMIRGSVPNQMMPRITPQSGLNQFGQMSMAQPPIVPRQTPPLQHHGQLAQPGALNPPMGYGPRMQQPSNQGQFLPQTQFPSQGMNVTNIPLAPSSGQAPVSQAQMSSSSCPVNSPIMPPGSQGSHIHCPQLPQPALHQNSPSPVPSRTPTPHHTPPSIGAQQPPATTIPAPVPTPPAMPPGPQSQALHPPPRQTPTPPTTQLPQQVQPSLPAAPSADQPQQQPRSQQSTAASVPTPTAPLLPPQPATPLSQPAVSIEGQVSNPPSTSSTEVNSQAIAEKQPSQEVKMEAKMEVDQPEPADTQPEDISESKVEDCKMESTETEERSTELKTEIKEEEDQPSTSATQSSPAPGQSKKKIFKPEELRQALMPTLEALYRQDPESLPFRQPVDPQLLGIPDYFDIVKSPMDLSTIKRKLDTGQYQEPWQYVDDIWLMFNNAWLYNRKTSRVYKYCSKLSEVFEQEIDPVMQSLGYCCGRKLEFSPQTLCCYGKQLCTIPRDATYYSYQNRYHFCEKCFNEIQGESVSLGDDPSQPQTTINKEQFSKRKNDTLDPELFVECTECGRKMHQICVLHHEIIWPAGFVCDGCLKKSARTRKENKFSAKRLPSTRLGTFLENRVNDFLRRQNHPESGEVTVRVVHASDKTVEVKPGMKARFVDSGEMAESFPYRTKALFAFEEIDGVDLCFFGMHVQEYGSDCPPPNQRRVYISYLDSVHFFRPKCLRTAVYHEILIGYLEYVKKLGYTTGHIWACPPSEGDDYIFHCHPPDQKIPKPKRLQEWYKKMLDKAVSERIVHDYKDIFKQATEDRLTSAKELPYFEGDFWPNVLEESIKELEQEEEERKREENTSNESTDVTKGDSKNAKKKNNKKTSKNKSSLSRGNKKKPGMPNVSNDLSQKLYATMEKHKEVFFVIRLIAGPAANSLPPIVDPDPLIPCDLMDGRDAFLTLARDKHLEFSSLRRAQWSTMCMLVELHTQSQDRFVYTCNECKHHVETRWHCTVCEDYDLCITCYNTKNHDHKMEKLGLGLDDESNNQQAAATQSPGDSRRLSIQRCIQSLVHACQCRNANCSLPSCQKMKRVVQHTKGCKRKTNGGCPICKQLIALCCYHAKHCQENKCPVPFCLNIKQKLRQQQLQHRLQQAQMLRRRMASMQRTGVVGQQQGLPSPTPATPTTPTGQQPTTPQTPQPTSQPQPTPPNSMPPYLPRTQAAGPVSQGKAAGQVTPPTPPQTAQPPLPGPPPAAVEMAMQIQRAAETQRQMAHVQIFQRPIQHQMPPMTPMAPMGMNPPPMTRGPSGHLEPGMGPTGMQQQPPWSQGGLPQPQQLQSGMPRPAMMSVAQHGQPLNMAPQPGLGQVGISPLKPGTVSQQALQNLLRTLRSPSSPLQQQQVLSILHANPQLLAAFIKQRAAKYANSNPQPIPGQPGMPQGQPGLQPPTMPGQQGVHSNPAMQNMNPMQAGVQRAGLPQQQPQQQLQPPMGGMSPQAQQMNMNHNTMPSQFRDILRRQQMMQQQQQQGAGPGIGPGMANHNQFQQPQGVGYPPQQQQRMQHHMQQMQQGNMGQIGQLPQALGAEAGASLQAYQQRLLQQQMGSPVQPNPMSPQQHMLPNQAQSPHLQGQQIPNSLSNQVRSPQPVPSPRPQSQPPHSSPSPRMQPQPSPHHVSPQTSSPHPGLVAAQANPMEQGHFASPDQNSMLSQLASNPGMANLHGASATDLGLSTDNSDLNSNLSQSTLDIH
T1 sequence (Q9H8M2 whole entry): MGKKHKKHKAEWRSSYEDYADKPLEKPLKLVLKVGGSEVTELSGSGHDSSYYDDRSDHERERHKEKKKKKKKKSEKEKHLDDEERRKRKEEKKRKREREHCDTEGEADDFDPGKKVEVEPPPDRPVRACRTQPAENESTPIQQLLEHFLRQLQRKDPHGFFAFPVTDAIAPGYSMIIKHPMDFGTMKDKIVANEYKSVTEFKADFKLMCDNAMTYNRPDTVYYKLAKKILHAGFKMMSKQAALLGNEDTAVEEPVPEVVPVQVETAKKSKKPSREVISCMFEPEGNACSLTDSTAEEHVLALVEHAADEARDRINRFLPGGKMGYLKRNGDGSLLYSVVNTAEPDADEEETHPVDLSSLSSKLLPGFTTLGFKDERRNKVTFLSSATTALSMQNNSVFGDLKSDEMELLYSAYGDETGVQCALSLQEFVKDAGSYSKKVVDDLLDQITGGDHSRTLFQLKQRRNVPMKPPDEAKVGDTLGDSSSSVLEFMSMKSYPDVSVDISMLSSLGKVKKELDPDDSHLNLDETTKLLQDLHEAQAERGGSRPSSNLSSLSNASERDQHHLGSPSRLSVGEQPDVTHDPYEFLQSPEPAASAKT
T3 sequence (P21675 1522-1656 limits assumed): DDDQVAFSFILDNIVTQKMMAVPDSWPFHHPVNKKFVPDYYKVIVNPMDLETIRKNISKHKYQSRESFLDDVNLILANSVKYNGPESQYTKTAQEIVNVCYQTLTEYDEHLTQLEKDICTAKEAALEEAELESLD
T9 sequence (Q86U86 388-494 limits assumed): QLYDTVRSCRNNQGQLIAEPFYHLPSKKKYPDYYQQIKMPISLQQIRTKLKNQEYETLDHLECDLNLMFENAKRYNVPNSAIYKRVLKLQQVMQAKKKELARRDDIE
T5 sequence (Q9NSI6 1150-1280 limits assumed): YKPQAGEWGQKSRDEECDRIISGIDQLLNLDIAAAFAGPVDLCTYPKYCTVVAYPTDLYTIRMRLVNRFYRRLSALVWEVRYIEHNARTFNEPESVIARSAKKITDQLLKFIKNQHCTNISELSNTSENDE

| SMILES | MYC mRNA levels [1] | TP63 mRNA levels [2] | pEC50 (BRD4 bromodomains; intact and permeabilized cells, read-out: NanoBRET EC50 both BRD4 bromodomains) | Mean Tm BRD9 (BRD9) | Mean Tm BAZ2B (BAZ2B) | Mean Tm TAF1 (2) (TAF1 (2)) | Mean Tm BRPF3 (BRPF3) | Mean Tm WDR9A(1) (WDR9A(1)) | Mean Tm ATAD2A (ATAD2A) | Mean Tm BRPF1B (BRPF1B) | Mean Tm BRD3 (1) (BRD3 (1)) | Mean Tm PB1A(3) (PB1A(3)) | Mean Tm EP300A (EP300A) | Mean Tm PB1A(6) (PB1A(6)) | pEC50 (BRD4 bromodomains; BD1 and BD2, intact cells, read-out: NanoBRET EC50 BRD4 bromodomains) |
| --- | --- | --- | --- | --- | --- | --- | --- | --- | --- | --- | --- | --- | --- | --- | --- |
| Cn1cc(-c2ccc(C(=O)Nc3ccccc3N)nc2)c2cc[nH]c2c1=O [NB500] | strongest effect | strongest effect |  |  |  |  |  |  |  |  |  |  |  |  |  |
| Cn1cc(-c2ccc(C(=O)Nc3cc(-c4ccccc4)ccc3N)nc2)c2cc[nH]c2c1=O [NB512] |  |  | 6.40 to 7.00 |  |  |  |  |  |  |  |  |  |  |  |  |
| Cn1cc(-c2ccc(C(=O)Nc3ccccc3N)cc2)c2cc[nH]c2c1=O [NB462] |  |  |  | 5.2 ± 1.2 K | 0.5 ± 0.0 K | 1.3 ± 0.0 K | -0.5 ± 0.1 K | -0.3 ± 0.2 K | 0.4 ± 0.2 K | 0.8 ± 0.1 K | 3.8 ± 0.3 K | 0.5 ± 0.2 K | 2.0 ± 0.3 K | 0.3 ± 0.1 K | 6.40 to 7.00 |
| Cn1cc(-c2ccc(C(=O)Nc3cc(-c4ccccc4)ccc3N)cc2)c2cc[nH]c2c1=O [NB503] | strongest effect | strongest effect |  | 1.0 ± 0.8 K | 1.4 ± 0.1 K | 1.7 ± 0.1 K | 1.2 ± 0.1 K | 0.0 ± 0.0 K | -1.3 ± 0.1 K | 0.8 ± 0.3 K | 3.8 ± 0.4 K | 0.0 ± 0.0 K | 1.0 ± 0.3 K | 1.3 ± 0.1 K |  |
